# Test results from patent US20210238170A1, “5,5-Difluoro- and 5-Fluoro-5-Methyl-C-Glycoside Derivatives Useful As Dual SGLT1 / SGLT2 Modulators” (Janssen Pharmaceutica NV, priority 2018, published 2021).
# Columns and labels:
# SD rats = experiment: Oral Glucose Tolerance Test (OGTT) in SD rats: blood glucose excursion AUC and urine glucose excretion; assay type: in vivo, rat; conditions: mean ± SE; for Urine Glucose Excretion (g/0-4 hr): n = 8
# Method: Biological Example 2: In Vivo Assay
# Oral Glucose Tolerance Test (OGTT) in SD Rats
# Overnight fasted SD rats were allocated into vehicle or test compound treatment groups based on their body weights (n=8 in each group). The animals were orally dosed with vehicle or test compound at a volume of 10 ml/kg at 30-minute prior to OGTT. The animals then received an OGTT challenge with 2 g/kg (50% glucose solution at the volume of 4 ml/kg, orally). The animals were immediately transferred into metabolic cages after they were dosed with the glucose. Blood glucose levels were measured at 0 (pre-OGTT), 30, 60, and 120 minutes after OGTT using one-touch Glucometer. Blood glucose excursion AUC (area under the curve of blood glucose) was determined from the blood glucose levels measured at the timepoints.
# Table 9 below, presents the measured efficacy of the test compound(s), expressed as the percentage (%) of blood glucose AUC vs that in vehicle group. The data is interpreted such that, the smaller the percentage of blood glucose AUC of compound vs vehicle, the greater the efficacy of the test compound. Urine volume and urine glucose concentrations (tested by using Olympus system with Genzyme diagnostics assay reagent) were measured to determine the urine glucose excretion (UGE) in 4-hr period after OGTT (0-4 hours).
# human SGLT2 = biological target: T1, human SGLT2 (Homo sapiens, UniProt P31639); experiment: SGLT2 in vitro assay: Na-dependent 14C-AMG uptake in CHO-K1 cells stably expressing human SGLT2; assay type: cell-based; conditions: CHO-K1 cells stably expressing human SGLT2, 14C-AMG uptake; for inhibition at 0.3 µM: read-out: SGLT2 % Inh @ 0.3 μM; for IC50: compounds of formula (I) where R0 is fluoro
# T1 construct: expressed in transfected cells
# T1 sequence (P31639 1-672): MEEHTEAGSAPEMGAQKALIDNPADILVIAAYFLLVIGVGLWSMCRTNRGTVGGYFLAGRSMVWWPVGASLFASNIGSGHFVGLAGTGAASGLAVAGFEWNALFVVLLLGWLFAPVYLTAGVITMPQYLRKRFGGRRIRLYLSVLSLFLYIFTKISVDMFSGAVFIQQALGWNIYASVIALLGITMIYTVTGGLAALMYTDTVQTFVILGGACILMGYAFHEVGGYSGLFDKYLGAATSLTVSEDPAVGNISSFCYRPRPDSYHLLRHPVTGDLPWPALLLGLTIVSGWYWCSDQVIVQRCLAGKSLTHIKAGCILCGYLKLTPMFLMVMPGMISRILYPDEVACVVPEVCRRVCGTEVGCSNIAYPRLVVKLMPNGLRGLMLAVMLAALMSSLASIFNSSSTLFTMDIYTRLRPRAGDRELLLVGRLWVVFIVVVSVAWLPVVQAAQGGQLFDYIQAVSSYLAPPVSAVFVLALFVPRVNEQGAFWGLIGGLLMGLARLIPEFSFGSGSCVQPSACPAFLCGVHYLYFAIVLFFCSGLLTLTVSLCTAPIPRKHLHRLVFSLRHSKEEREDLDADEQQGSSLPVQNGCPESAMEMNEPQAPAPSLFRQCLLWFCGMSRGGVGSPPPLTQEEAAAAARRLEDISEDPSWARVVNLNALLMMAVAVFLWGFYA
# Summary of the method: (§1)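 Sodium-dependent uptake of 14C-α-methyl-glucopyranoside ([…]) over 2 h at 37°C was counted by scintillation in stable human SGLT2- or SGLT1-CHO-K1 lines pretreated with 10 mM Na-butyrate. Compounds at 0.001–10 μM were preincubated for 10 min in pH 7.4 buffer with 137 mM NaCl; output is %-inhibition or IC50.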
# human SGLT1 = biological target: T2, human SGLT1 (Homo sapiens, UniProt P13866); experiment: SGLT1 in vitro assay: Na-dependent 14C-AMG uptake in CHO-K1 cells stably expressing human SGLT1; assay type: cell-based; conditions: CHO-K1 cells stably expressing human SGLT1, 14C-AMG uptake; for inhibition at 0.3 µM: read-out: SGLT1 % Inh @ 0.3 μM; for IC50: compounds of formula (I) where R0 is fluoro
# T2 construct: expressed in transfected cells
# T2 sequence (P13866 1-664): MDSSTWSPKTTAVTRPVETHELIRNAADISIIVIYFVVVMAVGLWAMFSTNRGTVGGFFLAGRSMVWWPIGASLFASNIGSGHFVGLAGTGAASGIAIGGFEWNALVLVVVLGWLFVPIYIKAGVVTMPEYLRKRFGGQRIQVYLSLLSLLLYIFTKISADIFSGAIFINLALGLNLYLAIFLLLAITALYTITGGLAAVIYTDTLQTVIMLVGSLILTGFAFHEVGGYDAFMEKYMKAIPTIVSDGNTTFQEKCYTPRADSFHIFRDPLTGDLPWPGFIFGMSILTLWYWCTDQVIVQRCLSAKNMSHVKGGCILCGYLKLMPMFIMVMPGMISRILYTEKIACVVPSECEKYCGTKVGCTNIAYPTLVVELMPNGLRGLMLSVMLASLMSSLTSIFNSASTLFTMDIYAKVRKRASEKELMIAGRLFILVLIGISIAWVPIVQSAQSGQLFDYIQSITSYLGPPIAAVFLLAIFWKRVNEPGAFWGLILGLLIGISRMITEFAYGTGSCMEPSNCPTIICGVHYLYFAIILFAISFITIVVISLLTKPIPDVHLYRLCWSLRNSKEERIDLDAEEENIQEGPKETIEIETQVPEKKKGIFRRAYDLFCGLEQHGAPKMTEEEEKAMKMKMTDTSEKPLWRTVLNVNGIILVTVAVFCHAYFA
# Summary of the method: as §1
# [1] = Rattus norvegicus, 2 h, oral dose 1 mg/kg, n = 8, read-out: 120-min Blood Glucose AUC vs Vehicle (%)
# [2] = Rattus norvegicus, 2 h, oral dose 10 mg/kg, n = 8, read-out: 120-min Blood Glucose AUC vs Vehicle (%)
Compound,response vs control in vivo at 1 mg/kg (SD rats; [1]) [%],"response vs control in vivo at 3 mg/kg (SD rats; Rattus norvegicus, 2 h, oral dose 3 mg/kg, n = 8, read-out: 120-min Blood Glucose AUC vs Vehicle (%)) [%]",response vs control in vivo at 10 mg/kg (SD rats; [2]) [%],Urine Glucose Excretion (g/0-4 hr) (SD rats; oral dose 1 mg/kg),Urine Glucose Excretion (g/0-4 hr) (SD rats; oral dose 3 mg/kg),Urine Glucose Excretion (g/0-4 hr) (SD rats; oral dose 10 mg/kg),inhibition at 0.3 µM (human SGLT2) [%],IC50 (human SGLT2) [µM],inhibition at 0.3 µM (human SGLT1) [%],IC50 (human SGLT1) [µM]
CCc1ccc(Cc2cc([C@@H]3O[C@H](CO)C(F)(F)[C@H](O)[C@H]3O)c(O)c3c2OCC3)cc1 [Compound 30],86 ± 3.4,80.3 ± 1.6,72 ± 2.3,0.001 ± 0.0001,0.001 ± 0.0002,0.001 ± 0.0002,62.4,0.0072,56.7,0.145
"CCc1cc(O)c([C@@H]2O[C@H](CO)C(F)(F)[C@H](O)[C@H]2O)cc1Cc1ccc(OC)cc1 [Compound 88, (2S,3R,4R,6R)-2-(4-ethyl-2-hydroxy-5-(4-methoxybenzyl)phenyl)-5,5-difluoro-6-(hydroxymethyl)-tetrahydro-2H-pyran-3,4-diol]",65.9 ± 1.8,–,41.6 ± 1.1,0.046 ± 0.014,–,0.349 ± 0.023,88.6,0.0017,77.2,0.041
"COc1ccc(Cc2cc([C@@H]3O[C@H](CO)C(F)(F)[C@H](O)[C@H]3O)c(O)cc2OC)cc1 [Compound 91, (2S,3R,4R,6R)-5,5-difluoro-2-(2-hydroxy-4-methoxy-5-(4-methoxybenzyl)phenyl)-6-(hydroxymethyl)-tetrahydro-2H-pyran-3,4-diol]",61.6 ± 3.9,–,41.3 ± 2.3,0.026 ± 0.007,–,0.089 ± 0.01,76.3,0.0032,74.3,0.074
